PubChem BioAssay AID256 (DTP/NCI, 2004)
Values joined by “and” are separate entries in the source; they are usually repeats but may differ in a detail not shown here. Equal values may be shown once. Toxic doses and inconclusive results are not listed. How the source made its calls: active means survival T/C of 150% or more; inactive means T/C below 125% in these data.

Test system: CD2F1 mice, L1210 leukemia ip, survival T/C
Assay: NCI In Vivo Anticancer Drug Screen. Data for tumor model L1210 Leukemia (intraperitoneal) in CD2F1 (CDF1) mice
Conditions: higher = longer survival
Procedure, shortened: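 Ratio T/C, where T is the treated-group value and C the vehicle-dosed control value, from mice implanted with a transplantable tumor.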

[1] = endpoint: mean survival time, dose: 100.0 mg/kg/injection, schedule: Q01DX009 (ip), vehicle: saline with Tween-80
[2] = endpoint: mean survival time, dose: 200.0 mg/kg/injection, schedule: Q01DX009 (ip), vehicle: saline with Tween-80
[3] = endpoint: mean survival time, dose: 400.0 mg/kg/injection, schedule: Q01DX009 (ip), vehicle: saline with Tween-80
[4] = endpoint: mean survival time, dose: 50.0 mg/kg/injection, schedule: Q01DX009 (ip), vehicle: saline with Tween-80
[5] = endpoint: mean survival time, dose: 100.0 mg/kg/injection, schedule: Q04DX003 (ip), vehicle: saline with Tween-80
[6] = endpoint: mean survival time, dose: 200.0 mg/kg/injection, schedule: Q04DX003 (ip), vehicle: saline with Tween-80
[7] = endpoint: mean survival time, dose: 400.0 mg/kg/injection, schedule: Q04DX003 (ip), vehicle: saline with Tween-80
[8] = endpoint: mean survival time, dose: 100.0 mg/kg/injection, schedule: Q04DX002 (ip), vehicle: saline with Tween-80
[9] = endpoint: mean survival time, dose: 200.0 mg/kg/injection, schedule: Q04DX002 (ip), vehicle: saline with Tween-80
[10] = endpoint: mean survival time, dose: 400.0 mg/kg/injection, schedule: Q04DX002 (ip), vehicle: saline with Tween-80
[11] = endpoint: mean survival time, dose: 50.0 mg/kg/injection, schedule: Q01DX009 (ip), vehicle: Klucel (hydroxypropylcellulose) (HPC)
[12] = endpoint: mean survival time, dose: 100.0 mg/kg/injection, schedule: Q01DX009 (ip), vehicle: Klucel (hydroxypropylcellulose) (HPC)
[13] = endpoint: mean survival time, dose: 12.5 mg/kg/injection, schedule: Q01DX009 (ip), vehicle: other
[14] = endpoint: mean survival time, dose: 25.0 mg/kg/injection, schedule: Q01DX009 (ip), vehicle: other

Measured: T/C

CC1(C)CC2(C)OC2C2(C1)N=NC(=Nc1ccccc1)O2 (stereo not given)
inactive: endpoint: median survival time, dose: 25.0 mg/kg/injection, schedule: Q01DX009 (ip), vehicle: saline with Tween-80 110 % of control | endpoint: median survival time, dose: 50.0 mg/kg/injection, schedule: Q01DX009 (ip), vehicle: saline with Tween-80 102 % of control

Cc1cc(C(O)(C(=O)O)c2ccccc2)cc(C)c1C (stereo not given)
inactive: endpoint: mean survival time, dose: 75.0 mg/kg/injection, schedule: Q01DX001 (ip), vehicle: other 100 % of control | endpoint: mean survival time, dose: 150.0 mg/kg/injection, schedule: Q01DX001 (ip), vehicle: other 90 % of control | endpoint: mean survival time, dose: 300.0 mg/kg/injection, schedule: Q01DX001 (ip), vehicle: other 105 % of control

O=C(Nc1ccc(Br)c2c(NC(=O)c3ccccc3)ccc(Br)c12)c1ccccc1
inactive: [1] 88 % of control and 93 % of control | [2] 97 % of control | [3] 93 % of control

CC(C)(C)CC(C)(C)SSc1n[nH]c(=S)s1
inactive: endpoint: mean survival time, dose: 2.5 mg/kg/injection, schedule: Q04DX003 (ip), vehicle: Klucel (hydroxypropylcellulose) (HPC) 102 % of control | endpoint: mean survival time, dose: 5.0 mg/kg/injection, schedule: Q04DX003 (ip), vehicle: Klucel (hydroxypropylcellulose) (HPC) 101 % of control | endpoint: mean survival time, dose: 10.0 mg/kg/injection, schedule: Q04DX003 (ip), vehicle: Klucel (hydroxypropylcellulose) (HPC) 98 % of control and 101 % of control

c1ccc(C(OOC(c2ccccc2)(c2ccccc2)c2ccccc2)(c2ccccc2)c2ccccc2)cc1
inactive: [4] 90 % of control | [1] 90 % of control | [2] 90 % of control

c1ccc2c(c1)ccc1c[n+]3ccccc3cc12
inactive: endpoint: mean survival time, dose: 1.25 mg/kg/injection, schedule: Q01DX009 (ip), vehicle: saline with Tween-80 95 % of control | endpoint: mean survival time, dose: 5.0 mg/kg/injection, schedule: Q04DX003 (ip), vehicle: saline sonified 96 % of control

OC1C=CC2CC1C2 (stereo not given)
inactive: [5] 95 % of control | [6] 98 % of control | [7] 98 % of control

COc1ccc(NC(=O)Nc2ccc(OC)cc2OC)cc1
inactive: [8] 86 % of control | [9] 90 % of control | [10] 86 % of control

Nc1nc(N)c2c(n1)NCN(CCc1cccc(Cl)c1)C2
inactive: endpoint: mean survival time, dose: 0.75 mg/kg/injection, schedule: Q01DX009 (ip), vehicle: distilled water + Tween-80 96 % of control | endpoint: mean survival time, dose: 1.5 mg/kg/injection, schedule: Q01DX009 (ip), vehicle: distilled water + Tween-80 100 % of control | endpoint: mean survival time, dose: 3.0 mg/kg/injection, schedule: Q01DX009 (ip), vehicle: distilled water + Tween-80 98 % of control | endpoint: mean survival time, dose: 6.0 mg/kg/injection, schedule: Q01DX009 (ip), vehicle: distilled water + Tween-80 96 % of control | endpoint: mean survival time, dose: 12.0 mg/kg/injection, schedule: Q01DX009 (ip), vehicle: distilled water + Tween-80 94 % of control | endpoint: mean survival time, dose: 24.0 mg/kg/injection, schedule: Q01DX009 (ip), vehicle: distilled water + Tween-80 94 % of control

N#CC1(c2ccc(Cl)cc2)CCC1
inactive: endpoint: mean survival time, dose: 100.0 mg/kg/injection, schedule: Q01DX009 (ip), vehicle: saline sonified 102 % of control | [5] 101 % of control | endpoint: mean survival time, dose: 200.0 mg/kg/injection, schedule: Q01DX009 (ip), vehicle: saline sonified 92 % of control | [6] 101 % of control | endpoint: mean survival time, dose: 400.0 mg/kg/injection, schedule: Q01DX009 (ip), vehicle: saline sonified 105 % of control | [7] 100 % of control

O=C(O)COc1ccc(Cl)cc1Cl.[Cr]
inactive: [8] 94 % of control | [9] 87 % of control | [10] 102 % of control

COc1ccc(S(=O)(=O)N=N/C=C2\C=CC=CN2O)cc1OC
inactive: endpoint: median survival time, dose: 3.12 mg/kg/injection, schedule: Q01DX009 (ip), vehicle: saline with Tween-80 101 % of control | endpoint: median survival time, dose: 6.25 mg/kg/injection, schedule: Q01DX009 (ip), vehicle: saline with Tween-80 107 % of control | endpoint: median survival time, dose: 12.5 mg/kg/injection, schedule: Q01DX009 (ip), vehicle: saline with Tween-80 104 % of control | endpoint: median survival time, dose: 18.0 mg/kg/injection, schedule: Q01DX009 (ip), vehicle: saline with Tween-80 103 % of control | endpoint: median survival time, dose: 37.0 mg/kg/injection, schedule: Q01DX009 (ip), vehicle: saline with Tween-80 105 % of control | endpoint: median survival time, dose: 100.0 mg/kg/injection, schedule: Q01DX009 (ip), vehicle: saline with Tween-80 113 % of control | endpoint: median survival time, dose: 150.0 mg/kg/injection, schedule: Q01DX009 (ip), vehicle: saline with Tween-80 98 % of control | endpoint: median survival time, dose: 200.0 mg/kg/injection, schedule: Q01DX009 (ip), vehicle: saline with Tween-80 95 % of control

c1ccc2c3c([nH]c2c1)CCCCC3
inactive: [5] 92 % of control | [6] 95 % of control | [7] 94 % of control

CCC(=O)c1ccc(NC(=O)Nc2ncccn2)cc1
inactive: [11] 91 % of control | [12] 94 % of control

Cc1ccc(S(=O)(=O)NN2CCOC2=O)cc1
inactive: [11] 100 % of control | [12] 91 % of control | endpoint: mean survival time, dose: 200.0 mg/kg/injection, schedule: Q01DX009 (ip), vehicle: Klucel (hydroxypropylcellulose) (HPC) 100 % of control

CC(=O)N(/C=C\C=C\c1sc2ccccc2[n+]1C)c1ccccc1
inactive: [13] 108 % of control | [14] 115 % of control

NC(=O)C1CCCCC1C(N)=O (stereo not given)
inactive: [1] 105 % of control | [2] 105 % of control | [3] 103 % of control

O=[N+]([O-])c1ccc2c(c1)-c1ccccc1/C2=N\O
inactive: endpoint: mean survival time, dose: 50.0 mg/kg/injection, schedule: Q01DX001 (ip), vehicle: carboxymethylcellulose (CMC) 98 % of control | endpoint: mean survival time, dose: 100.0 mg/kg/injection, schedule: Q01DX001 (ip), vehicle: carboxymethylcellulose (CMC) 104 % of control | endpoint: mean survival time, dose: 200.0 mg/kg/injection, schedule: Q01DX001 (ip), vehicle: carboxymethylcellulose (CMC) 111 % of control | endpoint: mean survival time, dose: 400.0 mg/kg/injection, schedule: Q01DX001 (ip), vehicle: carboxymethylcellulose (CMC) 104 % of control

CN(C)N=Nc1c(F)cccc1F
inactive: endpoint: mean survival time, dose: 6.25 mg/kg/injection, schedule: Q01DX009 (ip), vehicle: other 98 % of control | [13] 113 % of control and 93 % of control | endpoint: mean survival time, dose: 12.5 mg/kg/injection, schedule: Q01DX009 (ip), vehicle: saline with Tween-80 98 % of control | [14] 117 % of control and 100 % of control | endpoint: mean survival time, dose: 25.0 mg/kg/injection, schedule: Q01DX009 (ip), vehicle: saline with Tween-80 106 % of control | endpoint: mean survival time, dose: 50.0 mg/kg/injection, schedule: Q01DX009 (ip), vehicle: other 91 % of control | [4] 120 % of control | endpoint: mean survival time, dose: 100.0 mg/kg/injection, schedule: Q01DX009 (ip), vehicle: other 102 % of control and 104 % of control

O=C(c1ccccc1)C1(Br)CCCCC1
inactive: endpoint: mean survival time, dose: 50.0 mg/kg/injection, schedule: Q04DX003 (ip), vehicle: saline 95 % of control | endpoint: mean survival time, dose: 100.0 mg/kg/injection, schedule: Q04DX003 (ip), vehicle: Klucel (hydroxypropylcellulose) (HPC) 101 % of control | endpoint: mean survival time, dose: 100.0 mg/kg/injection, schedule: Q04DX003 (ip), vehicle: saline 96 % of control | endpoint: mean survival time, dose: 200.0 mg/kg/injection, schedule: Q04DX003 (ip), vehicle: Klucel (hydroxypropylcellulose) (HPC) 96 % of control | endpoint: mean survival time, dose: 200.0 mg/kg/injection, schedule: Q04DX003 (ip), vehicle: saline 93 % of control | endpoint: mean survival time, dose: 400.0 mg/kg/injection, schedule: Q04DX003 (ip), vehicle: Klucel (hydroxypropylcellulose) (HPC) 106 % of control | endpoint: mean survival time, dose: 400.0 mg/kg/injection, schedule: Q04DX003 (ip), vehicle: saline 98 % of control

Cc1cc(NC(=O)c2ccc(Cl)cc2)ccc1Cl
inactive: [5] 97 % of control | [6] 97 % of control | [7] 106 % of control
